According to US9815796B2 (Merck Sharp & Dohme Corp., priority 2013, dated 2017):

Target: human PDE2A1 (Homo sapiens (Human), UniProt O00408)
Assay: IMAP FP PDE selectivity panel, human PDE2A1
Type: biochemical
Settings: Human PDE2, Lab B; read-out: Human PDE2 Ki (nM) - Lab B
Method: Selectivity for PDE2, as compared to other PDE families, was assessed using the IMAP® technology. Human PDE 10A2 enzyme was prepared from cytosolic fractions of transiently transfected HEK cells. All other PDE's were GST Tag human enzyme expressed in insect cells and were obtained from BPS Bioscience (San Diego, Calif.): PDE1A (Cat#60010), human PDE2A1 (Cat#60020), PDE3A (Cat#60030), PDE4A1A (Cat#60040), PDE5A1 (Cat#60050), PDE6C (Cat#60060), PDE7A (Cat#60070), PDE8A1 (Cat#60080), PDE9A2 (Cat#60090), PDE11A4 (Cat#60110).
Assays for PDE 1 through 11 were performed in parallel at room temperature in 384-well microtiter plates with an incubation volume of 20.2 μL. Solutions of test compounds were prepared in DMSO and serially diluted with DMSO to yield 30 μL of each of ten solutions differing by 3-fold in concentration, at 32 serial dilutions per plate. […] A Labcyte POD 810 (Labcyte, Sunnyvale, Calif.) was used to dispense 200 nL from each well of the titration plate to make eleven copies of the assay plate for each titration, one copy for each PDE enzyme. A solution of each enzyme (dilution from aliquots, sufficient to produce 20% substrate conversion) and a separate solution of FAM-labeled cAMP or FAM-labeled cGMP from Molecular Devices (Sunnyvale, Calif., product # R7506 or cGMP#R7508), at a final concentration of 50 nM were made in the assay buffer (10 mM Tris HCl, pH 7.2, 10 mM MgCl2, 0.05% NaN3 0.01% Tween-20, and 1 mM DTT). Note that the substrate for PDE2 is 50 nM FAM cAMP containing 1000 nM of cGMP. The enzyme and the substrate were then added to the assay plates in two consecutive additions of 10 μL and then shaken to mix. The reaction was allowed to proceed at room temperature for 60 minutes. A binding solution was then made from the kit components, comprised of 80% Solution A, 20% Solution B and binding reagent at a volume of 1/600 the total binding solution. The enzymatic reaction was stopped by addition of 60 μL of the binding solution to each well of the assay plate. The plates were sealed and shaken for 10 seconds. The plates were incubated at room temperature for one hour, then the parallel and perpendicular fluorescence was measured using a Tecan Genios Pro plate reader (Tecan, Switzerland). The apparent inhibition constants for the compounds against all 11 PDE's was determined from the parallel and perpendicular fluorescent readings as described for PDE10 FP assay using the following apparent KM values for each enzyme and substrate combination: PDE1A (FAM cGMP) 70 nM, human PDE2A1 (FAM cAMP) 10,000 nM, PDE3A (FAM cAMP) 50 nM, PDE4A1A (FAM cAMP) 1500 nM, PDE5A1 (FAM cGMP) 400 nM, PDE6C (FAM cGMP) 700 nM, PDE7A (FAM cAMP) 150 nM, PDE8A1 (FAM cAMP) 50 nM, PDE9A2 (FAM cGMP) 60 nM, PDE10A2 (FAM cAMP) 150 nM, PDE11A4 (FAM cAMP) 1000 nM. The intrinsic PDE2 inhibitory activity of a compound which may be used in accordance with the present invention may be determined by these assays.

human PDE2A1, sequence (O00408 other isoform, or with tags, fused parts or gaps): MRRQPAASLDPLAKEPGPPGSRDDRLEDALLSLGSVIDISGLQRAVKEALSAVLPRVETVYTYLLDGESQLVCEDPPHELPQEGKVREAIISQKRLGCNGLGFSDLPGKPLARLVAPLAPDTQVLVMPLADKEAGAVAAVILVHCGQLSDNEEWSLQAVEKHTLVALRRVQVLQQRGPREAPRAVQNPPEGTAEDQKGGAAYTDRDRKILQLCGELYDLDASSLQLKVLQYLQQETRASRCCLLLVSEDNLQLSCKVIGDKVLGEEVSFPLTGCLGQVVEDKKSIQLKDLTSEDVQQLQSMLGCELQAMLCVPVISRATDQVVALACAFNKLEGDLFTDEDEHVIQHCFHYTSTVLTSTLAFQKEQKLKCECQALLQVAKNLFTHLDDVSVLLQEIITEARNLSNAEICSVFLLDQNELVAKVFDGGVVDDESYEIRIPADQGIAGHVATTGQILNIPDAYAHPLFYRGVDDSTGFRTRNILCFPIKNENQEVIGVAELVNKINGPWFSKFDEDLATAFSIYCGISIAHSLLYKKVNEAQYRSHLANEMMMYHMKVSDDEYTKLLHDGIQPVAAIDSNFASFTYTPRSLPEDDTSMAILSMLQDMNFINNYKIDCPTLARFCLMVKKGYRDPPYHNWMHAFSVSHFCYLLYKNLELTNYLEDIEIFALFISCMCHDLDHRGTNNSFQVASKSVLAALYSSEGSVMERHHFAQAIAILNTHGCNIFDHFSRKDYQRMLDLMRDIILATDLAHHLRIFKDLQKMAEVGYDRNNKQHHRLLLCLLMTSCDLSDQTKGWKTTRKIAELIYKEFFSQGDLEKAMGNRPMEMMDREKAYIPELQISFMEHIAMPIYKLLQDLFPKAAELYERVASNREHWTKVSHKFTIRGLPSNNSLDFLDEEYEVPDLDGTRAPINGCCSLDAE

Question: With `CC(C)(C)[C@@H](NC(=O)c1cc(=O)[nH]c(-c2ccccc2)n1)c1ccc(OC(F)(F)F)c(F)c1` [Example 542, N-{(1R)-1-[3-fluoro-4-(trifluoromethoxy)phenyl]-2,2-dimethylpropyl}-6-oxo-2-phenyl-1,6-dihydropyrimidine-4-carboxamide] as the molecule, how does the Ki read?
Answer: 1.4 nM

Question: How did the Ki turn out when `Cc1nc(C(=O)N[C@H](C)c2ccc(S(F)(F)(F)(F)F)cc2F)cc(=O)[nH]1` [Example 672, N-(1-(2-fluoro-4-(pentafluorothio)phenyl)ethyl)-2-methyl-6-oxo-1,6-dihydropyrimidine-4-carboxamide] was run?
Answer: > 2960 nM

Question: For `CCC(C)(NC(=O)c1cc(=O)[nH]c(C)n1)c1ccc(C(F)(F)F)cc1` (single isomer, unassigned) [Example 669, (R)- or (S)-2-methyl-N-{1-methyl-1-[4-(trifluoromethyl)phenyl]propyl}-6-oxo-1,6-dihydropyrimidine-4-carboxamide], which Ki is on record?
Answer: 15 nM

Question: For `Cc1nc(C(=O)N[C@@H](c2ccc(OC(F)(F)F)cc2)C(C)(C)O)cc(=O)[nH]1` [Example 724, N-{(1S)-2-hydroxy-2-methyl-1-[4-(trifluoromethoxy)phenyl]propyl}-2-methyl-6-oxo-1,6-dihydropyrimidine-4-carboxamide], which Ki is on record?
Answer: 3.1 nM

Question: How did the Ki turn out when `Cc1nc(C(=O)NC(C)(C)c2ccc(OC(F)(F)F)cc2F)cc(=O)[nH]1` [Example 597, N-{1-[2-fluoro-4-(trifluoromethoxy)phenyl]-1-methylethyl}-2-methyl-6-oxo-1,6-dihydropyrimidine-4-carboxamide] was run?
Answer: 137 nM

Question: How did the Ki turn out when `Cc1nc(C(=O)N[C@@H](c2ccc(C(F)F)cc2)C(C)C)cc(=O)[nH]1` [Example 648, N-{(1R)-1-[4-(difluoromethyl)phenyl]-2-methylpropyl}-2-methyl-6-oxo-1,6-dihydropyrimidine-4-carboxamide] was run?
Answer: 34 nM

Question: For `CC(C)(NC(=O)c1cc(=O)[nH]c(-c2ncccn2)n1)c1ccc(C(F)(F)F)cc1F` [Example 573, N-{1-[2-fluoro-4-(trifluoromethyl)phenyl]-1-methylethyl}-6-oxo-1,6-dihydro-2,2′-bipyrimidine-4-carboxamide], which Ki is on record?
Answer: 88 nM

Question: For `CC(NC(=O)c1cc(=O)[nH]c(-c2ncccn2)n1)c1ccc(C2(C(F)(F)F)CC2)cc1` (single isomer, unassigned) [Example 693, (R)- or (S)-6-oxo-2-(pyrimidin-2-yl)-N-(1-(4-(1-(trifluoromethyl)cyclopropyl)phenyl)-ethyl)-1,6-dihydropyrimidine-4-carboxamide], which Ki is on record?
Answer: 63 nM

Question: Which Ki does the source give for `CC1(c2ccc(C(NC(=O)c3cc(=O)[nH]c(C4CC4)n3)C(C)(C)C)cc2F)CC1` (single isomer, unassigned) [Example 712, (S)- or (R)-2-cyclopropyl-N-(1-(3-fluoro-4-(1-methylcyclopropyl)phenyl)-2,2-dimethylpropyl)-6-oxo-1,6-dihydropyrimidine-4-carboxamide] here?
Answer: 237 nM

Question: With `Cc1nc(C(=O)NC(C)c2ccc(C(F)(F)C(F)(F)F)cc2)cc(=O)[nH]1` (single isomer, unassigned) [Example 684, (S)- or (R)-2-methyl-6-oxo-N-(1-(4-(perfluoroethyl)phenyl)ethyl)-1,6-dihydropyrimidine-4-carboxamide] as the molecule, how does the Ki read?
Answer: > 2960 nM

Question: Which Ki does the source give for `Cc1nc(C(=O)NC(C)(C)c2ccc(C(F)F)c(F)c2)cc(=O)[nH]1` [Example 654, N-{1-[4-(difluoromethyl)-3-fluorophenyl]-1-methylethyl}-2-methyl-6-oxo-1,6-dihydropyrimidine-4-carboxamide] here?
Answer: 72 nM

Question: With `Cc1nc(C(=O)N[C@@H](c2ccc(C(F)F)c(F)c2)C2CC2)cc(=O)[nH]1` [Example 651, N-{(R)-cyclopropyl[4-(difluoromethyl)-3-fluorophenyl]methyl}-2-methyl-6-oxo-1,6-dihydropyrimidine-4-carboxamide] as the molecule, how does the Ki read?
Answer: 109 nM

Question: With `CC(C)(C)c1ccc([C@H](NC(=O)c2cc(=O)[nH]c(-c3ncccn3)n2)C2(C)CC2)cc1` [Example 563, N-[(R)-(4-tert-butylphenyl)(1-methylcyclopropyl)methyl]-6-oxo-1,6-dihydro-2,2′-bipyrimidine-4-carboxamide] as the molecule, how does the Ki read?
Answer: 27 nM

Question: For `CCC(C)(NC(=O)c1cc(=O)[nH]c(C)n1)c1ccc(C(F)(F)F)cc1F` (single isomer, unassigned) [Example 718, (S)- or (R)-N-(2-(2-fluoro-4-(trifluoromethyl)phenyl)butan-2-yl)-2-methyl-6-oxo-1,6-dihydropyrimidine-4-carboxamide], which Ki is on record?
Answer: 39 nM

Question: For `CCC(C)(NC(=O)c1cc(=O)[nH]c(C)n1)c1ccc(C(F)(F)F)cc1` (single isomer, unassigned) [Example 668, (S)- or (R)-2-methyl-N-{1-methyl-1-[4-(trifluoromethyl)phenyl]propyl}-6-oxo-1,6-dihydropyrimidine-4-carboxamide], which Ki is on record?
Answer: 67 nM

Question: How did the Ki turn out when `CCc1nc(C(=O)N[C@](C)(CO)c2ccc(C(F)(F)F)cc2Cl)cc(=O)[nH]1` [Example 639, N-{(1S)-1-[2-chloro-4-(trifluoromethyl)phenyl]-2-hydroxy-1-methylethyl}-2-ethyl-6-oxo-1,6-dihydropyrimidine-4-carboxamide] was run?
Answer: 2 nM

Question: How did the Ki turn out when `CCc1nc(C(=O)NC(C)(C)c2ccc(C(F)(F)F)cc2)cc(=O)[nH]1` [Example 600, 2-ethyl-N-{1-methyl-1-[4-(trifluoromethyl)phenyl]ethyl}-6-oxo-1,6-dihydropyrimidine-4-carboxamide] was run?
Answer: 21 nM

Question: With `CC1([C@@H](NC(=O)c2cc(=O)[nH]c(-c3ccccc3)n2)c2ccc(OC(F)F)cc2)CC1` [Example 548, N-[(R)-[4-(difluoromethoxy)phenyl](1-methylcyclopropyl)methyl]-6-oxo-2-phenyl-1,6-dihydropyrimidine-4-carboxamide] as the molecule, how does the Ki read?
Answer: 4.5 nM

Question: How did the Ki turn out when `CC[C@@H](NC(=O)c1cc(=O)[nH]c(-c2ncccn2)n1)c1ccc2c(c1)OC(F)(F)O2` [Example 590, N-[(1R)-1-(2,2-difluoro-1,3-benzodioxol-5-yl)propyl]-6-oxo-1,6-dihydro-2,2′-bipyrimidine-4-carboxamide] was run?
Answer: 34 nM

Question: With `Cc1nc(C(=O)N[C@@H](c2ccc(C(F)F)c(F)c2)C(C)(C)C)cc(=O)[nH]1` [Example 646, N-{(1R)-1-[4-(difluoromethyl)-3-fluorophenyl]-2,2-dimethylpropyl}-2-methyl-6-oxo-1,6-dihydropyrimidine-4-carboxamide] as the molecule, how does the Ki read?
Answer: 15 nM

Question: For `Cc1nc(C(=O)NC2(c3ccc(OC(F)F)cc3)CC2)cc(=O)[nH]1` [Example 628, N-{1-[4-(difluoromethoxy)phenyl]cyclopropyl}-2-methyl-6-oxo-1,6-dihydropyrimidine-4-carboxamide], which Ki is on record?
Answer: 87 nM

Question: `CC(C)c1ccc([C@H](NC(=O)c2cc(=O)[nH]c(-c3ccccc3)n2)C2(C)CC2)cc1` [Example 547, N-{(R)-(1-methylcyclopropyl)[4-(1-methylethyl)phenyl]methyl}-6-oxo-2-phenyl-1,6-dihydropyrimidine-4-carboxamide] was tested. Which Ki did it give?
Answer: 1.8 nM

Question: For `CC(C)[C@@H](NC(=O)c1cc(=O)[nH]c(-c2ncccn2)n1)c1ccc(C2CC2)c(F)c1` [Example 560, N-[(1R)-1-(4-cyclopropyl-3-fluorophenyl)-2-methylpropyl]-6-oxo-1,6-dihydro-2,2′-bipyrimidine-4-carboxamide], which Ki is on record?
Answer: 5.1 nM
